Literature values in article PMC9406037, “Design, Synthesis and Activity of New N^1-Alkyl Tryptophan Functionalized Dendrimeric Peptides against Glioblastoma” (Biomolecules, 2022).

Tests used:
[1] = alpha-tocopherol at ca 4.4 µM
Description: Taking into account structural differences between these two groups of dendrimers, the possible primary mechanism in the DPPH conditions involves hydrogen and electron transfer from the above electron-rich center and to less extent from numerous indole rings. For the same reasons, the highest reductive capabilities (FRAP) were expressed by compound 24. All compounds were very effective in s ...

[2] = system: U87MG cells cultured in spheroids; details: 20 µM alone or in combination with iododeoxyuridine (IUdR 1 µM) for 67 h; clonogenicity observed 10 day later
Description: Another important issue which has to be taken into consideration is the time of treatment with potential drugs and mode of action. […] […] However, combined treatment o ...

Molecule | radical scavenging potency relative to Trolox, ABTS model [1] | radical scavenging potency relative to Trolox, DPPH model [1] | effect on cell viability or clonogenicity [2]
Cc1c(C)c2c(c(C)c1O)CC[C@@](C)(CCC[C@H](C)CCC[C@H](C)CCCC(C)C)O2 [alpha-tocopherol] | ~5.5 | slightly lower | 
trans-3,4,5′-trihydroxystilbene [Resveratrol] | much more potent than Trolox | much more potent than Trolox | without any effect on cell viability or clonogenicity
